Measured values from US7179825B2, “Retinoic acid mimetic anilides” (Janssen Pharmaceutica N.V., priority 1997, dated 2007).

Test system: Ovariectomized rats
Experiment: Vaginal keratinization test on ovariectomized rats (Example C.2)
Format: in vivo
Settings: estradiol undecylate induced keratinization, per os once daily on days 1-3, active dose = 50% of rats show complete suppression
Source text: The property to delay the metabolism of retinoic acid can be evidenced in various in vitro and in vivo experiments. A particular in vitro procedure is described in example C.1 and tests the inhibitory activity of the compounds of formula (I) on the metabolism of retinoic acid in human breast cancer cells. The compounds of the present invention were also effective in suppressing induced vaginal keratinization effects in ovariectomized rats as is described in example C.2.
“Vaginal Keratinization Test on Ovariectomized Rats”
Ovariectomized rats were injected subcutaneously with a sesame oil solution containing 100 μg of estradiol undecylate in a volume of 0.1 ml per 100 g body weight and control animals were injected with sesame oil. On day one, two and three, test animals were treated once daily with a per os dose of the test compound and control animals with the drug vehicle (PEG 200). One day after the last treatment, the animals were sacrificed and their vaginas were processed for histological evaluation according to the method described in J. Pharmacol. Exp. Ther. 261(2), 773–779 (1992). A dose at which 50% of the tested rats show complete suppression of the estradiol undecylate induced keratinization effects is defined as an active dose. Table 23 lists the lowest active dose (LAD in mg/kg) of the compounds of formula (I) which were tested.

Row | Structure (SMILES) | LAD (lowest active dose) [mg/kg]
1 | CCC(CC)C(c1ccc(NC(=S)Nc2nc3ccccc3s2)cc1)n1cncn1 (racemic) [Compound 706] | 5.00
2 | CCC(C(c1ccc(NC(C)=O)cc1)n1ccnc1)N(C)C (single isomer, unassigned) [Compound 557] | >5.00
3 | CC(=O)Nc1ccc(C(C=CC(C)C)n2ccnc2)cc1 (racemic) [Compound 532] | >10.00
4 | CNC(C)C(c1ccc(NC(=O)Cc2ccc(OC)c(OC)c2)cc1)n1ccnc1 (racemic) [Compound 400, (±)-(A)-3,4-dimethoxy-N-[4-[1-(1H-imidazol-1-yl)-2-(methylamino)propyl]phenyl]benzeneacetamide] | >2.50
5 | COc1cc(CC(=O)Nc2ccc(C(C(C)N(C)C)n3ccnc3)cc2)ccc1Cl (single isomer, unassigned) [Compound 310] | 2.50
6 | CCC(CC)C(c1ccc(NC(=O)CN2CCN(C)CC2)cc1)n1ccnc1 (racemic) [Compound 44] | 2.50
7 | CC(C(c1ccc(NC(=O)Cc2ccc(N(C)C)cc2)cc1)n1ccnc1)N(C)C (single isomer, unassigned) [Compound 317] | >5.00
8 | COc1ccc(CC(=O)Nc2ccc(C(C(C)N(C)C)n3cncn3)cc2)cc1OC (single isomer, unassigned) [Compound 278] | 2.50
9 | CC(C(c1ccc(NC(=O)Cc2ccc3c(c2)OCCO3)cc1)n1cncn1)N(C)C (single isomer, unassigned) [Compound 333] | >2.50
10 | COc1cc(CC(=O)Nc2ccc(C(C(C)N(C)C)n3ccnc3)cc2)ccc1C (single isomer, unassigned) [Compound 314] | >2.50
11 | CC(=O)Nc1ccc(C(C(C)N(Cc2ccccc2)Cc2ccccc2)n2ccnc2)cc1 (mixture of isomers) [Compound 572] | >5.00
12 | COc1ccccc1OCC(=O)Nc1ccc(C(C(C)N(C)C)n2ccnc2)cc1 (single isomer, unassigned) [Compound 350] | >2.50
13 | COc1ccc(CC(=O)Nc2ccc(C(C(C)N(C)C)n3ccnc3)cc2)cc1OC (single isomer, unassigned) [Compound 379] | >2.50
14 | COc1ccc(CC(=O)Nc2ccc(C(C(C)N(C)Cc3ccccc3)n3ccnc3)cc2)cc1OC (single isomer, unassigned) [Compound 396] | >2.50
15 | COc1ccc(CC(=O)Nc2ccc(C(C(C)N(C)C)n3cncn3)cc2)cc1Cl (single isomer, unassigned) [Compound 279] | 2.50
16 | CCCCCC(CC)C(c1ccc(NC(=O)C(C)=Cc2ccccc2)cc1)n1ccnc1 (single isomer, unassigned) [Compound 494] | >2.50
17 | CCC(CC)C(c1ccc(NC(=O)C2CCN(C)CC2)cc1)n1ccnc1 (racemic) [Compound 59] | >2.50
18 | COc1ccc(CCC(=O)Nc2ccc(C(C(C)N(C)C)n3cncn3)cc2)cc1OC (single isomer, unassigned) [Compound 328] | >2.50
19 | CC(C(c1ccc(NC(=O)Cc2ccc3c(c2)OCCO3)cc1)n1ccnc1)N(C)C (single isomer, unassigned) [Compound 338] | >2.50
20 | CC(C(c1ccc(NC(=O)Cc2ccc3c(c2)OCO3)cc1)n1cncn1)N(C)C (single isomer, unassigned) [Compound 325] | 2.50
21 | Cc1ccc(CC(=O)Nc2ccc(C(C(C)N(C)C)n3cncn3)cc2)cc1C (single isomer, unassigned) [Compound 280] | >2.50
22 | COc1ccc(CC(=O)Nc2ccc(C(C(C)N(C)C)n3cncn3)cc2)cc1C (single isomer, unassigned) [Compound 286] | >2.50
23 | COc1ccc(CC(=O)Nc2ccc(C(C(C)N(C)C)n3cncn3)cc2)cc1C (single isomer, unassigned) [Compound 281] | >2.50
24 | CCOc1ccc(CC(=O)Nc2ccc(C(C(C)N(C)C)n3ccnc3)cc2)cc1OCC (single isomer, unassigned) [Compound 300] | >2.50
25 | COc1ccc(C(=O)Nc2ccc(C(C(C)N(C)C)n3ccnc3)cc2)cc1OC (single isomer, unassigned) [Compound 342] | >2.50
26 | CCCCOc1ccc(CC(=O)Nc2ccc(C(C(C)N(C)C)n3ccnc3)cc2)cc1 (single isomer, unassigned) [Compound 319] | >5.00

Row | Structure (SMILES) | LAD (lowest active dose) [mg/kg]
27 | COc1ccc(CC(=O)Nc2ccc(C(C(C)N(C)C)n3ccnc3)cc2)cc1Cl (single isomer, unassigned) [Compound 304] | >2.50
28 | CCC(C)C(c1ccc(NC(=O)Cc2ccc(Cl)cc2)cc1)n1cncn1 (stereo not shown) [Compound 626] | 2.50
29 | COc1ccc(CC(=O)Nc2ccc(C(C(C)N3CCOCC3)n3ccnc3)cc2)cc1OC (single isomer, unassigned) [Compound 408] | >5.00
30 | CC(C(c1ccc(NC(=O)Cc2ccc3c(c2)OCO3)cc1)n1ccnc1)N(C)C (single isomer, unassigned) [Compound 337] | 2.50
31 | CC(C(c1ccc(NC(=O)N2CCN(C)CC2)cc1)n1ccnc1)N(C)C (single isomer, unassigned) [Compound 349] | >2.50
32 | COc1ccc(C(=O)Nc2ccc(C(C(C)N(C)C)n3cncn3)cc2)cc1OC (single isomer, unassigned) [Compound 327] | >2.50
33 | COc1ccc(CC(=O)N(C)c2ccc(C(C(C)N(C)C)n3ccnc3)cc2)cc1OC (single isomer, unassigned) [Compound 439] | >2.50
34 | CCC(CC)C(c1ccc(NC(=O)CN(C)C)cc1)n1ccnc1 (stereo not shown) [Compound 55] | >2.50
35 | CC(=O)Nc1ccc(C(C(C)N(C)C)n2ccnc2)cc1.O (single isomer, unassigned) [Compound 551] | >2.50
36 | CC(=O)Nc1ccc(C(C(C)N(C)C)n2cncn2)cc1 (single isomer, unassigned) [Compound 627] | >2.50
37 | CCOC(=O)CC(c1ccc(NC(=O)Cc2ccc(OC)c(OC)c2)cc1)n1ccnc1 (stereo not shown) [Compound 395] | >5.00
38 | COc1ccc(CC(=O)Nc2ccc(C(CCO)n3ccnc3)cc2)cc1OC (stereo not shown) [Compound 403] | >5.00
39 | COc1ccc(CC(=O)Nc2ccc(C(C(C)N(Cc3ccccc3)Cc3ccccc3)n3ccnc3)cc2)cc1OC (single isomer, unassigned) [Compound 419] | >5.00
40 | CC(C(c1ccc(NC(=O)Cc2ccc(Cl)cc2)cc1)n1cncn1)N(C)C (single isomer, unassigned) [Compound 283] | 2.50
41 | COc1ccc(CC(=O)Nc2ccc(C(C3CCCCN3C)n3ccnc3)cc2)cc1OC (single isomer, unassigned) [Compound 411] | 2.50
42 | COc1cc(CC(=O)Nc2ccc(C(C(C)N(C)C)n3cncn3)cc2)ccc1C (single isomer, unassigned) [Compound 295] | >2.50
43 | CCOC(=O)C(C)C(c1ccc(NC(=O)Cc2ccc(OC)c(OC)c2)cc1)n1ccnc1 (single isomer, unassigned) [Compound 381] | >2.50
44 | CCCCCC(C)C(c1ccc(NC(=O)Cc2ccc(OC)c(OC)c2)cc1)n1ccnc1 (single isomer, unassigned) [Compound 384] | >2.50
45 | COc1ccc(NC(=O)Nc2ccc(C(C(C)N(C)C)n3cncn3)cc2)cc1OC (single isomer, unassigned) [Compound 717] | >2.50
46 | COc1ccc(C(=O)Nc2ccc(C(C(C)N(C)C)n3ccnc3)cc2)cc1OC (single isomer, unassigned) [Compound 341] | >2.50
47 | CC(=O)Nc1ccc(C(C(C)N(C)C)n2ccnc2)cc1 (single isomer, unassigned) [Compound 552] | >2.50
48 | CCN(CC)C(C)C(c1ccc(NC(C)=O)cc1)n1ccnc1 (single isomer, unassigned) [Compound 555] | >2.50
49 | CC(C(c1ccc(NC(=O)Cc2ccc3c(c2)OCO3)cc1)n1ccnc1)N(C)C (single isomer, unassigned) [Compound 340] | 2.50
50 | COc1ccc(NC(=O)Nc2ccc(C(C(C)N(C)C)n3cncn3)cc2)cc1OC (single isomer, unassigned) [Compound 720] | >2.50
51 | CC(C(c1ccc(NC(=O)N2CCN(C)CC2)cc1)n1ccnc1)N(C)C (single isomer, unassigned) [Compound 347] | >5.00
52 | CC(C(c1ccc(NC(=O)Cc2ccc(Cl)cc2)cc1)n1cncn1)N(C)C (single isomer, unassigned) [Compound 628] | >2.50
